Laboratory results reported in ChEMBL document CHEMBL2074114, “Inhibitory effect of novel oral hypoglycemic agent nateglinide (AY4166) on peptide transporters PEPT1 and PEPT2” (Eur J Pharmacol, 2000).
pIC50: −log10 of the molar value.

Legend:
Type in all cases: functional, cell-based
[1] = biological target: T1, Solute carrier family 15 member 1 (Rattus norvegicus) (UniProt P51574); experiment: TP_TRANSPORTER: inhibition of Gly-Sar uptake (Gly-Sar: 20 uM, Tolbutamide: 1000uM) in PEPT1-expressing LLC-PK1 cells
T1 sequence (whole entry): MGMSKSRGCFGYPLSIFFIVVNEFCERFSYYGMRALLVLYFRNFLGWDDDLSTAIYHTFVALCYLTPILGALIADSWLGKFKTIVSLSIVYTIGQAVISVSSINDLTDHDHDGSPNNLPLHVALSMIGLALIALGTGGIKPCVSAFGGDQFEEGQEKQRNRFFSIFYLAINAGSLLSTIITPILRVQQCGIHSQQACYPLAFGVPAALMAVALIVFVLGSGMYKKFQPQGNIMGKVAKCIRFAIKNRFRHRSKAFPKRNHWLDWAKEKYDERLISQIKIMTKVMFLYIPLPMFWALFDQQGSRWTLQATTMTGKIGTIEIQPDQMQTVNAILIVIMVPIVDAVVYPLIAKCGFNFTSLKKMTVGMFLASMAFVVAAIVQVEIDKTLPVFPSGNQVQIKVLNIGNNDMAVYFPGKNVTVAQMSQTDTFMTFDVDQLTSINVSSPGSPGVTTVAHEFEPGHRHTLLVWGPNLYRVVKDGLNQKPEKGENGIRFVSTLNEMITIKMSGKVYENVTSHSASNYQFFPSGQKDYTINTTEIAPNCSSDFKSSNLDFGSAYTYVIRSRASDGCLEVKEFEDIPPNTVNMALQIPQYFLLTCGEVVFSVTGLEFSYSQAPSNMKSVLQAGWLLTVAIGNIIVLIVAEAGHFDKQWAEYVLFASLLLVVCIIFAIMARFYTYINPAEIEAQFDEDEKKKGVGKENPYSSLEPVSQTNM

[2] = biological target: T2, Solute carrier family 15 member 2 (Rattus norvegicus) (UniProt Q63424); experiment: TP_TRANSPORTER: inhibition of Gly-Sar uptake (Gly-Sar: 20 uM, Tolbutamide: 1000uM) in PEPT2-expressing LLC-PK1 cells
T2 sequence (whole entry): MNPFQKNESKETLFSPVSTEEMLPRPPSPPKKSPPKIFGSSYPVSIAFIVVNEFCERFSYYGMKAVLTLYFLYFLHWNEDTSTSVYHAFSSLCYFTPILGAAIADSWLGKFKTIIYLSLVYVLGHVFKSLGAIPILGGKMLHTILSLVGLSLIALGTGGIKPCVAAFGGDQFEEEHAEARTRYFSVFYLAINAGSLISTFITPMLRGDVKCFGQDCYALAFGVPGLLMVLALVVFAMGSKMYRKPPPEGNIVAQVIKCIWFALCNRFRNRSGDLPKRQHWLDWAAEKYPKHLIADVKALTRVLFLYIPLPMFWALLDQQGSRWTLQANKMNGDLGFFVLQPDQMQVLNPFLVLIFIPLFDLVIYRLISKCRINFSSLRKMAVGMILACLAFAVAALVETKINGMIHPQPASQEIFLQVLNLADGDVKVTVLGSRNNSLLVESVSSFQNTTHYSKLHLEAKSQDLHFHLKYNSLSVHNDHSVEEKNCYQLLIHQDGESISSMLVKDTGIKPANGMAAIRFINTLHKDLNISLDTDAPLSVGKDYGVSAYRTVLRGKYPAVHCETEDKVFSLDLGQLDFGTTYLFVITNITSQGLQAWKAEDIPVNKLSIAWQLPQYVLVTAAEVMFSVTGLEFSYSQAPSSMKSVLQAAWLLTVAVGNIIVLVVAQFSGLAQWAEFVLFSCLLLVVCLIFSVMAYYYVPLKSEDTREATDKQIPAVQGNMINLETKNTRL

[3] = biological target: T1, Solute carrier family 15 member 1 (Rattus norvegicus); experiment: TP_TRANSPORTER: inhibition of Gly-Sar uptake (Gly-Sar: 20 uM, Chlorpropamide: 1000uM) in PEPT1-expressing LLC-PK1 cells
[4] = biological target: T2, Solute carrier family 15 member 2 (Rattus norvegicus); experiment: TP_TRANSPORTER: inhibition of Gly-Sar uptake (Gly-Sar: 20 uM, Chlorpropamide: 1000uM) in PEPT2-expressing LLC-PK1 cells
[5] = biological target: T3, Solute carrier family 15 member 1 (Rattus norvegicus, UniProt P51574); experiment: TP_TRANSPORTER: inhibition of Gly-Sar uptake (Gly-Sar: 20 uM) in PEPT1-expressing LLC-PK1 cells
T3 sequence (P51574 whole entry): T1 sequence (whole entry)

[6] = biological target: T2, Solute carrier family 15 member 2 (Rattus norvegicus); experiment: TP_TRANSPORTER: uptake in PEPT2-expressing LLC-PK1 cells
[7] = biological target: T4, Solute carrier family 15 member 2 (Rattus norvegicus, UniProt Q63424); experiment: TP_TRANSPORTER: inhibition of Gly-Sar uptake (Gly-Sar: 20 uM) in PEPT2-expressing LLC-PK1 cells
T4 sequence (Q63424 whole entry): T2 sequence (whole entry)

[8] = biological target: T1, Solute carrier family 15 member 1 (Rattus norvegicus); experiment: TP_TRANSPORTER: uptake in PEPT1-expressing LLC-PK1 cells

CCCCNC(=O)NS(=O)(=O)c1ccc(C)cc1
Activity [1]: inhibitor [+] | Activity [2]: inhibitor [+]

CCCNC(=O)NS(=O)(=O)c1ccc(Cl)cc1
Activity [3]: inhibitor [+] | Activity [4]: inhibitor [+]

CC(C)[C@H]1CC[C@H](C(=O)N[C@H](Cc2ccccc2)C(=O)O)CC1 [NATEGLINIDE]
pIC50 [5]: 3.80 | Activity [6]: is not a substrate [-] | pIC50 [7]: 4.15 | Activity [8]: is not a substrate [-]
